Measured values reported in patent US20240124417A1, “COMPOUNDS USEFUL AS IMMUNOMODULATORS” (Bristol-Myers Squibb Company, priority 2019, published 2024).

target: T1, PD-1/PD-L1 (Homo sapiens, UniProt Q9NZQ7); test: PD-1/PD-L1 Homogenous Time-Resolved Fluorescence (HTRF) binding assay; conditions: PD-L1-His 10 nM, PD-1-Ig 20 nM
T1 construct: TVMV protease site linker (C); made in house; host or cells: HEK293T cells
Summary of the method: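 Time-resolved FRET read-out using Eu-cryptate anti-Ig (1 nM final) and APC anti-His (20 nM final). Tagged extracellular domains were used in BSA/Tween-20-supplemented dPBS, with compound pre-incubated 15 min with PD-L1-His (10 nM) before PD-1-Ig (20 nM) was added for 15 min. Other human pairs: PD-L2-His 5 nM with PD-1-Ig 20 nM; PD-L1-Ig 10 nM with CD80-His 100 nM.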

T1 sequence (Q9NZQ7 18-239): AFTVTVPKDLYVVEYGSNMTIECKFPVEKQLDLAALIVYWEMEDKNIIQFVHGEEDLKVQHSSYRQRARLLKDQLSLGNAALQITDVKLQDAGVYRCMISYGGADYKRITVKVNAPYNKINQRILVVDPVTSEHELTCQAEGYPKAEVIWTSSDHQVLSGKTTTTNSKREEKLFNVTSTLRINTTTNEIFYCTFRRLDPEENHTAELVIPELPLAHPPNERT

Which IC50 does the source give for `Cc1c(COc2cc(OCc3cncc(C#N)c3)c(CN(C)CCc3cscn3)cc2Cl)cccc1-c1cccc(OCCCN2CC[C@@H](O)C2)c1C` [Example 2507, (R)-5-((4-chloro-5-((3′-(3-(3-hydroxypyrrolidin-1-yl)propoxy)-2,2′-dimethyl-[1,1′-biphenyl]-3-yl)methoxy)-2-((methyl(2-(thiazol-4-yl)ethyl)amino)methyl)phenoxy)methyl)nicotinonitrile] here?
Its IC50 is 1.7 nM.

For `Cc1c(COc2cc(OCc3cncc(C#N)c3)c(CN3CCCC(c4ncc[nH]4)C3)cc2Cl)cccc1-c1cccc(OCCCN2CC[C@@H](O)C2)c1C` (stereo partly drawn) [Example 1003, 5-((2-((3-(1H-Imidazol-2-yl)piperidin-1-yl)methyl)-4-chloro-5-((3′-(3-((R)-3-hydroxy-pyrrolidin-1-yl)propoxy)-2,2′-dimethyl-[1,1′-biphenyl]-3-yl)methoxy)phenoxy)methyl)-nicotinonitrile], which IC50 is on record?
The IC50 was 1.4 nM.

For `Cc1c(COc2cc(OCc3cncc(C#N)c3)c(CN(C)Cc3nn(C)c4ccccc34)cc2Cl)cccc1-c1cccc(OCCCN2CC[C@@H](O)C2)c1C` [Example 2562, (R)-5-((4-chloro-5-((3′-(3-(3-hydroxypyrrolidin-1-yl)propoxy)-2,2′-dimethyl-[1,1′-biphenyl]-3-yl)methoxy)-2-((methyl((1-methyl-1H-indazol-3-yl)methyl)amino)methyl)phenoxy)methyl)nicotinonitrile], which IC50 is on record?
The IC50 was 9.5 nM.

Which IC50 does the source give for `Cc1c(COc2cc(OCc3cncc(C#N)c3)c(CNCc3cccnn3)cc2Cl)cccc1-c1cccc(OCc2cncnc2)c1Cl` [Example 2061, 5-((4-chloro-5-((2′-chloro-2-methyl-3′-(pyrimidin-5-ylmethoxy)-[1,1′-biphenyl]-3-yl)methoxy)-2-(((pyridazin-3-ylmethyl)amino)methyl)phenoxy)methyl)nicotinonitrile] here?
The IC50 was 16.9 nM.

For `Cc1c(COc2cc(OCc3cncc(C#N)c3)c(CN3CCCCC3c3cnn(C)c3)cc2Cl)cccc1-c1cccc(OCC2CCCN(C)C2)c1Cl` (stereo not drawn) [Example 1022, 5-((4-Chloro-5-((2′-chloro-2-methyl-3′-((1-methylpiperidin-3-yl)methoxy)-[1,1′-biphenyl]-3-yl)methoxy)-2-((2-(1-methyl-1H-pyrazol-4-yl)piperidin-1-yl)methyl)phenoxy)-methyl)nicotinonitrile], which IC50 is on record?
The IC50 was 1.3 nM.

For `Cc1c(COc2cc(OCc3cncc(C#N)c3)c(CN3CCCC3c3ccn[nH]3)cc2Cl)cccc1-c1cccc(OCC2CCCN(C)C2)c1Cl` (stereo not drawn) [Example 1026, 5-((2-((2-(1H-Pyrazol-5-yl)pyrrolidin-1-yl)methyl)-4-chloro-5-((2′-chloro-2-methyl-3′-((1-methylpiperidin-3-yl)methoxy)-[1,1′-biphenyl]-3-yl)methoxy)phenoxy)methyl)-nicotinonitrile], which IC50 is on record?
Its IC50 is 1.5 nM.

`Cc1c(COc2cc(OCc3cncc(C#N)c3)c(CN(C)Cc3cnco3)cc2Cl)cccc1-c1cccc(OCCCN2CC[C@@H](O)C2)c1C` [Example 2551, (R)-5-((4-chloro-5-((3′-(3-(3-hydroxypyrrolidin-1-yl)propoxy)-2,2′-dimethyl-[1,1′-biphenyl]-3-yl)methoxy)-2-((methyl(oxazol-5-ylmethyl)amino)methyl)phenoxy)methyl)nicotinonitrile] was tested. Which IC50 did it give?
Its IC50 is 2.7 nM.

How did the IC50 turn out when `Cc1c(COc2cc(OCc3cncc(C#N)c3)c(CNCc3ncn[nH]3)cc2Cl)cccc1-c1cccc(OCC2CCCN(C)C2)c1Cl` (stereo not drawn) [Example 2578, 5-((2-((((1H-1,2,4-triazol-5-yl)methyl)amino)methyl)-4-chloro-5-((2′-chloro-2-methyl-3′-((1-methylpiperidin-3-yl)methoxy)-[1,1′-biphenyl]-3-yl)methoxy)phenoxy)methyl)nicotinonitrile] was run?
Its IC50 is 1.9 nM.

With `COCc1noc(CNCc2cc(Cl)c(OCc3cccc(-c4cccc(OCCCN5CC[C@@H](O)C5)c4C)c3C)cc2OCc2cncc(C#N)c2)n1` [Example 2558, (R)-5-((4-chloro-5-((3′-(3-(3-hydroxypyrrolidin-1-yl)propoxy)-2,2′-dimethyl-[1,1′-biphenyl]-3-yl)methoxy)-2-((((3-(methoxymethyl)-1,2,4-oxadiazol-5-yl)methyl)amino)methyl)phenoxy)methyl)nicotinonitrile] as the compound, how does the IC50 read?
The IC50 was 6.4 nM.

`Cc1c(COc2cc(OCc3cncc(C#N)c3)c(CN3CCCC3c3nnn[nH]3)cc2Cl)cccc1-c1cccc(OCCCN2CC[C@@H](O)C2)c1C` (stereo partly drawn) [Example 1015, 5-((2-((2-(1H-Tetrazol-5-yl)pyrrolidin-1-yl)methyl)-4-chloro-5-((3′-(3-((R)-3-hydroxy-pyrrolidin-1-yl)propoxy)-2,2′-dimethyl-[1,1′-biphenyl]-3-yl)methoxy)phenoxy)methyl)-nicotinonitrile] was tested. Which IC50 did it give?
Its IC50 is 2.9 nM.

With `Cc1c(COc2cc(OCc3cncc(C#N)c3)c(CN3CCc4c(cnn4-c4ccccc4)C3)cc2Cl)cccc1-c1cccc(OCCCN2CC[C@@H](O)C2)c1C` [Example 2567, (R)-5-((4-chloro-5-((3′-(3-(3-hydroxypyrrolidin-1-yl)propoxy)-2,2′-dimethyl-[1,1′-biphenyl]-3-yl)methoxy)-2-((1-phenyl-1,4,6,7-tetrahydro-5H-pyrazolo[4,3-c]pyridin-5-yl)methyl)phenoxy)methyl)nicotinonitrile] as the compound, how does the IC50 read?
Its IC50 is 22.8 nM.

With `CC(=O)NC1CCN(CCCOc2cccc(-c3cccc(COc4cc(OCc5cncc(C#N)c5)c(CN5CCC(c6cnn(C)c6)C5)cc4Cl)c3C)c2C)CC1` (stereo not drawn) [Example 1052, N-(1-(3-((3′-((2-Chloro-5-((5-cyanopyridin-3-yl)methoxy)-4-((3-(1-methyl-1H-pyrazol-4-yl)pyrrolidin-1-yl)methyl)phenoxy)methyl)-2,2′-dimethyl-[1,1′-biphenyl]-3-yl)oxy)-propyl)piperidin-4-yl)acetamide] as the compound, how does the IC50 read?
Its IC50 is 3.4 nM.

`Cc1c(COc2cc(OCc3cncc(C#N)c3)c(CNCCc3cc[nH]n3)cc2Cl)cccc1-c1cccc(OCCCN2CC[C@@H](O)C2)c1C` [Example 2514, (R)-5-((2-(((2-(1H-pyrazol-3-yl)ethyl)amino)methyl)-4-chloro-5-((3′-(3-(3-hydroxypyrrolidin-1-yl)propoxy)-2,2′-dimethyl-[1,1′-biphenyl]-3-yl)methoxy)phenoxy)methyl)nicotinonitrile] was tested. Which IC50 did it give?
The IC50 was 1.9 nM.

How did the IC50 turn out when `Cc1c(COc2cc(OCc3cccnn3)c(CNCc3ncc[nH]3)cc2Cl)cccc1-c1cccc(OCC2CCCN(C)C2)c1Cl` (stereo not drawn) [Example 2055, N-((1H-imidazol-2-yl)methyl)-1-(5-chloro-4-((2′-chloro-2-methyl-3′-((1-methylpiperidin-3-yl)methoxy)-[1,1′-biphenyl]-3-yl)methoxy)-2-(pyridazin-3-ylmethoxy)phenyl)methanamine] was run?
The IC50 was 3.1 nM.

For `Cc1c(COc2cc(OCc3cncc(C#N)c3)c(CNCc3cncnc3)cc2Cl)cccc1-c1cccc(OCCCN2CC[C@@H](O)C2)c1C` [Example 2022, (R)-5-((4-chloro-5-((3′-(3-(3-hydroxypyrrolidin-1-yl)propoxy)-2,2′-dimethyl-[1,1′-biphenyl]-3-yl)methoxy)-2-(((pyrimidin-5-ylmethyl)amino)methyl)phenoxy)methyl)nicotinonitrile], which IC50 is on record?
Its IC50 is 0.8 nM.

With `Cc1nc2c(s1)CN(Cc1cc(Cl)c(OCc3cccc(-c4cccc(OCCCN5CC[C@@H](O)C5)c4C)c3C)cc1OCc1cncc(C#N)c1)CC2` [Example 2503, (R)-5-((4-chloro-5-((3′-(3-(3-hydroxypyrrolidin-1-yl)propoxy)-2,2′-dimethyl-[1,1′-biphenyl]-3-yl)methoxy)-2-((2-methyl-6,7-dihydrothiazolo[5,4-c]pyridin-5(4H)yl)methyl)phenoxy)methyl)nicotinonitrile] as the compound, how does the IC50 read?
Its IC50 is 3.9 nM.

`Cc1c(COc2cc(OCc3cncc(C#N)c3)c(CN(C)Cc3cc4ccccn4n3)cc2Cl)cccc1-c1cccc(OCCCN2CC[C@@H](O)C2)c1C` [Example 2542, (R)-5-((4-chloro-5-((3′-(3-(3-hydroxypyrrolidin-1-yl)propoxy)-2,2′-dimethyl-[1,1′-biphenyl]-3-yl)methoxy)-2-((methyl(pyrazolo[1,5-a]pyridin-2-ylmethyl)amino)methyl)phenoxy)methyl)nicotinonitrile] was tested. Which IC50 did it give?
Its IC50 is 3.9 nM.

`Cc1c(COc2cc(OCc3cncc(C#N)c3)c(CN3CCc4cn[nH]c4C3)cc2Cl)cccc1-c1cccc(OCCCN2CC[C@@H](O)C2)c1C` [Example 2569, (R)-5-((4-chloro-5-((3′-(3-(3-hydroxypyrrolidin-1-yl)propoxy)-2,2′-dimethyl-[1,1′-biphenyl]-3-yl)methoxy)-2-((1,4,5,7-tetrahydro-6H-pyrazolo[3,4-c]pyridin-6-yl)methyl)phenoxy)methyl)nicotinonitrile] was tested. Which IC50 did it give?
The IC50 was 5.5 nM.

For `Cc1c(COc2cc(OCc3cncc(C#N)c3)c(CNC(C(=O)O)c3cnn(C)c3)cc2Cl)cccc1-c1cccc(OCC2CCCN(C)C2)c1Cl` (stereo not drawn) [Example 1028, 2-((5-Chloro-4-((2′-chloro-2-methyl-3′-((1-methylpiperidin-3-yl)methoxy)-[1,1′-biphenyl]-3-yl)methoxy)-2-((5-cyanopyridin-3-yl)methoxy)benzyl)amino)-2-(1-methyl-1H-pyrazol-4-yl)acetic acid], which IC50 is on record?
The IC50 was 1.9 nM.

For `Cc1c(COc2cc(OCc3cncc(C#N)c3)c(CNCCc3nnnn3C)cc2Cl)cccc1-c1cccc(OCCCN2CC[C@@H](O)C2)c1C` [Example 1014, (R)-5-((4-Chloro-5-((3′-(3-(3-hydroxypyrrolidin-1-yl)propoxy)-2,2′-dimethyl-[1,1′-biphenyl]-3-yl)methoxy)-2-(((2-(1-methyl-1H-tetrazol-5-yl)ethyl)amino)methyl)-phenoxy)methyl)nicotinonitrile], which IC50 is on record?
The IC50 was 2.9 nM.

For `Cc1c(COc2cc(OCc3cncc(C#N)c3)c(CNCc3ncco3)cc2Cl)cccc1-c1cccc(OCCCN2CC[C@@H](O)C2)c1C` [Example 2546, (R)-5-((4-chloro-5-((3′-(3-(3-hydroxypyrrolidin-1-yl)propoxy)-2,2′-dimethyl-[1,1′-biphenyl]-3-yl)methoxy)-2-(((oxazol-2-ylmethyl)amino)methyl)phenoxy)methyl)nicotinonitrile], which IC50 is on record?
Its IC50 is 1.8 nM.
